Reference: patent publication US12472185B2, “Methods for killing antibiotic tolerant bacteria” (THE PENN STATE RESEARCH FOUNDATION, priority 2020, dated 2025)
Values after ≈ are worked out from the molar mass of the structure shown. Values joined by “and” are separate entries in the source; they are usually repeats but may differ in a detail not shown here. Identical values can stand only once.

Columns and labels:
E. coli persister cells [1] = assay: ChemBridge screen for persister cell killing; format: cell-based, Escherichia coli; conditions: 100 μM, 24 hr
Method: FIG. 1. […] Escherichia coli persister cells were treated for 24 hr at 100 μM with: • 1: N-(3,4-dichlorophenyl)-N′-(3-fluorophenyl) thiourea; • 2: 2-({2-[(4-bromophenyl)amino]-4-quinazolinyl}amino)ethanol hydrochloride; • 3: 2-[(6-phenyl-2,3,4,9-tetrahydro-1H-carbazol-1-yl)amino] ethanol; • 4: 1-(3,6-dichloro-9H-carbazol-9-yl)-3-(2-methyl-1H-imidazol-1-yl)-2-propanol; • 5: N-[2-(4-fluorophenyl)ethyl]-N′-(4-nitrophenyl) thiourea; • 6: N-(4-chlorobenzyl)-N′-4-pyridinylthiourea; • 7: N′-(3,5-dichloro-2-hydroxybenzylidene)-2-oxo-4-phenyl-3-pyrrolidinecarbohydrazide; and • 8: [(5-nitro-3-phenyl-1H-indol-2-yl)methyl]amine hydrochloride (NPIMA, structure shown in inset).
To identify compounds that kill E. coli persister cells, 10,000 compounds of the DIVERset Library from ChemBridge (San Diego, CA) were tested by adding 4 μl of each (in DMSO, final concentration 100 μM) to 186 μl of LB in 96-well plates along with 10 μl of persister cells; the persister cells were added after the ChemBridge chemical since LB wakes persister cells (Kim, Yamasaki, et al., 2018). For the negative control, pure DMSO (final concentration 2 vol %) was used. The degree of inhibition was determined by the change in turbidity at 600 nm after 24 hr. The best 26 compounds were re-tested with the same conditions.
To screen directly for killing persister cells, a high-throughput approach using 96-well microtiter plates was devised that consisted of (a) washing persister cells formed from exponentially-growing cells using rifampicin pretreatment followed by ampicillin treatment, (b) adding 10 μl of the persister cells to 190 μl of LB containing one each of the 10,000 compounds of the DiverSet library dissolved in dimethyl sulfoxide (100 μM final concentration), and (c) monitoring for growth via change in turbidity for 24 hr. With this approach, we allowed for up to a 140-fold change in turbidity (0.005 could be increased to 0.69).

[2] = tested on: E. coli BW25113 persister cells; assay: Single-cell persister resuscitation; format: cell-based, Escherichia coli; conditions: 100 μM, M9 alanine (5×) agarose gel pads, 6 h
Text: FIG. 12. RluD increases persister resuscitation by increasing ribosomes for resuscitation. (A) Single-cell persister resuscitation as determined using light microscopy (Zeiss Axio Scope.A1). The fold-change in resuscitation is relative to BW25113 with DMSO for BW25113 with BPOET, relative to BW25113 for the ΔrluD mutant, relative to BW25113/pCA24N for the strain producing RluD from pCA24N plasmid in BW25113, and relative to MG1655 for ΔrybB. M9 glucose (0.4%) agarose gel pads were used for all the strains except BW25113 with BPOET where M9 alanine (5×) agarose gel pads including 100 μM of BPOET or DMSO were used. The results are the combined observations from two independent experiments after 6 h for the BW25113 with BPOET, after 4 h for BW25113 and its deletion mutants, and after 6 h for cells harboring pCA24N and its derivatives as well as for MG1655 and MG1655 ΔrybB. Error bars indicate standard deviations. (B) Active 70S ribosomes in single persister cells for MG1655-ASV/pCA24N-rluD (“RluD”) VS. MG1655-ASV/pCA24N (“Empty”). Cells are shown on agarose gel pads at time 0 for resuscitation; i.e., after the formation of persister cells. Representative results from three independent cultures are shown.
Single-cell persister resuscitation. As described previously (19), 5 μL of cell populations consisting of 100% persister cells were added to 1.5% agarose gel pads containing either M9 medium with glucose (0.4 wt %) or alanine (5×) as a carbon source (24), and resuscitation was monitored at 37° C. via a light microscope (Zeiss Axio Scope.A1, bl_ph channel at 1000 ms exposure).
Table 5. Single persister cell resuscitation. Single-cell persister resuscitation as determined using light microscopy (Zeiss Axio Scope.A1) using agarose gel pads. The fold-change in resuscitation is relative to BW25113 with DMSO for BW25113 with BPOET, relative to BW25113 for the ΔrluD, relative to BW25113/pCA24N for the strain producing RluD from pCA24N in BW25113, and relative to MG1655 for ΔrybB. […]

E. coli persister cells [3] = assay: Re-test of resuscitation hits in minimal alanine medium, 96-well plates; format: cell-based, Escherichia coli; conditions: 100 μM
Method: ChemBridge screen to identify resuscitation compounds. To identify compounds that resuscitate E. coli persister cells, the DIVERset Library from ChemBridge (San Diego, CA) containing 10,000 druglike compounds with high pharmacophore diversity was evaluated by adding 4 μL of each compound (final concentration 100 μM, dissolved in DMSO) to 186 μL of LB in 96 well plates and then adding 10 μL of persister cells. The negative control was 2 vol % DMSO. Resuscitation was calculated as the change in turbidity at 600 nm. The compounds that were identified initially were re-tested in M9 minimal medium with 5× alanine (24).

[4] = tested on: E. coli BW25113 exponential cells; assay: Survival of exponentially-growing cells (drop assay); format: cell-based, Escherichia coli; conditions: 100 μM, 6 hr
Method: (§1) FIG. 2. NPIMA eradicates Escherichia coli, Pseudomonas aeruginosa, and Staphylococcus aureus exponential cells. Survival after 6 hr for (a) E. coli BW25113 with NPIMA and 5-iodoindole at 100 μM, (b) P. aeruginosa PA14 with NPIMA and 5-iodoindole at 100 μM, and (c) S. aureus with NPIMA and 5-iodoindole at 200 μM. Asterisk indicates no viable cells detected. NPIMA, 5-nitro-3-phenyl-1H-indol-2-yl-methylamine hydrochloride.
FIG. 8. NPIMA structure function relationships. Exponential cells of Escherichia coli BW25113 were treated with (a) 2-(aminomethyl) indole, and (b) 2-methyl-5-nitro-3-phenyl-1H-indole for 6 hr. NPIMA, 5-nitro-3-phenyl-1Hindol-2-yl-methylamine hydrochloride.
(§2) For bacterial viability, cells were washed twice with 0.85% NaCl, resuspended in 1×PBS, and cell counts were determined via the drop assay (Donegan, Matyac, Seidler, & Porteous, 1991). For human cell viability, pre-cultured human cancer HT-29 cells were dispensed in 98 μl in 96-well plates with approximately 5,000 cells/well. NPIMA was added (2 μl) to produce concentrations of 5, 10, 100, and 200 μM. For controls, Triton X-100 (positive control) and DMSO (negative solvent control), were used, and the medium was used for background. Plates were incubated in a humidified incubator (37° C., 5% CO2) for 24 hr. Cell viability was determined via a cell counting kit (CCK-8 Kit, ab228554; Abcam), and cytotoxicity was determined via the lactate dehydrogenase (LDH) assay (LDH Assay Kit, MK401; Takara).

[5] = tested on: E. coli BW25113 persister cells; assay: Survival of persister cells (rifampicin/ampicillin generated); format: cell-based, Escherichia coli; conditions: 100 μM, 6 hr
Method: FIG. 3. NPIMA kills Escherichia coli, Pseudomonas aeruginosa, persister cells. Survival of (a) E. coli BW25113 and (b) P. aeruginosa PA14 after treatment with NPIMA (100 μM), 5-iodoindole (5-II, 100 μM), and DMSO for 6 hr. Asterisk indicates no viable cells detected. DMSO, dimethyl sulfoxide; NPIMA, 5-nitro-3-phenyl-1H-indol-2-yl-methylamine hydrochloride.
E. coli persister cells were prepared following our previous method (Kim, Yamasaki, et al., 2018; Kwan, Valenta, Benedik, & Wood, 2013). Exponentially-growing cells (turbidity of 0.8 at 600 nm) were treated with rifampicin (100 μg/ml for 30 min) to stop transcription, washed, and any remaining nonpersister cells were lysed by ampicillin in LB (100 μg/ml for 3 hr). Cells were harvested by centrifugation (17,000 g for 1 min) and washed with 1× phosphate-buffered saline buffer (PBS, 8 g NaCl, 0.2 g KCl, 1.15 g Na2HPO4, and 0.2 g KH2PO4 per 1,000 ml) twice to remove all possible carbon sources, then resuspended with 1×PBS. Natural E. coli persister cells were generated by treating stationary-phase cells (turbidity of 6 at 600 nm) with ampicillin (100 μg/ml) for 3 hr. P. aeruginosa PA14 persister cells were prepared by incubating to the stationary phase, diluting sixfold, and treating with carbonyl cyanide m-chlorophenylhydrazone (CCCP, 50 mg/ml stock solution in dimethly sulfoxide [DMSO]) to stop adenosine triphosphate (ATP) production (200 μg/ml for 3 hr), washed twice with 0.85% NaCl (5,000 g for 10 min), and any nonpersister cells were killed by ciprofloxacin (5 μg/ml) in LB for 3 hr. Following the antibiotic treatment, bacteria were washed twice with 0.85% NaCl (5,000 g for 10 min).
For bacterial viability, cells were washed twice with 0.85% NaCl, resuspended in 1×PBS, and cell counts were determined via the drop assay (Donegan, Matyac, Seidler, & Porteous, 1991). […] Cell viability was determined via a cell counting kit (CCK-8 Kit, ab228554; Abcam), and cytotoxicity was determined via the lactate dehydrogenase (LDH) assay (LDH Assay Kit, MK401; Takara).

E. coli K-12 BW25113 = assay: Minimum inhibitory concentration (MIC); format: cell-based; conditions: Escherichia coli, LB, 24 hr
Method: (§3) The bacteria used in this study are E. coli K-12 BW25113 (Baba et al., 2006), S. aureus ATCC29213, and P. aeruginosa PA14 (Liberati et al., 2006). Lysogeny broth (LB; Bertani, 1951) was used at 37° C. for culturing the bacteria. 2-(Aminomethyl)-indole was obtained from Sigma-Aldrich (catalog number 563838), and 2-methyl-5-nitro-3-phenyl-1H-indole was obtained from ChemBridge (San Diego, CA).
(§4) To determine the MICs of NPIMA and 5-iodoindole for E. coli K-12, S. aureus, and P. aeruginosa PA14, cells were inoculated into LB at varying concentrations and grown for 24 hr. The MIC was determined as the lowest concentration that prevented an increase in growth as evidenced by a lack of change of turbidity.

S. aureus ATCC29213 = assay: Minimum inhibitory concentration (MIC); format: cell-based; conditions: Staphylococcus aureus, LB, 24 hr
Method: as §3, §4

P. aeruginosa PA14 = assay: Minimum inhibitory concentration (MIC); format: cell-based; conditions: Pseudomonas aeruginosa, LB, 24 hr
Method: as §3, §4

E. coli persister cells [6] = conditions: 1 mM; Lee et al., 2016; cited from earlier work
[7] = tested on: P. aeruginosa PA14 exponential cells; assay: Survival of exponentially-growing cells (drop assay); format: cell-based, Pseudomonas aeruginosa; conditions: 100 μM
Method: as §1, §2

S. aureus cells = assay: Survival of cells (drop assay); format: cell-based, Staphylococcus aureus; conditions: 200 μM
Method: as §1, §2

With `S=C(NCc1ccc(Cl)cc1)Nc1ccncc1` [compound 6, N-(4-chlorobenzyl)-N′-4-pyridinylthiourea] the “persister killing, second screen (FIG. 1)” value (shortened to “persister killing”) (E. coli persister cells [1]) was “Most effective”.
For `O=C1NCC(c2ccccc2)C1C(=O)N/N=C\c1cc(Cl)cc(Cl)c1O` (centres unmarked) [compound 7, N′-(3,5-dichloro-2-hydroxybenzylidene)-2-oxo-4-phenyl-3-pyrrolidinecarbohydrazide], the “persister killing” value (E. coli persister cells [1]) was “Most effective”.
For `Cl.OCCNc1nc(Nc2ccc(Br)cc2)nc2ccccc12` [compound 2, 2-({2-[(4-bromophenyl)amino]-4-quinazolinyl}amino)ethanol hydrochloride], the “persister killing” value (E. coli persister cells [1]) was “Most effective”.
For `OCCNC1CCCc2c1[nH]c1ccc(-c3ccccc3)cc21` (centres unmarked) [compound 3, 2-[(6-phenyl-2,3,4,9-tetrahydro-1H-carbazol-1-yl)amino] ethanol], the “persister killing” value (E. coli persister cells [1]) was “Most effective”.
In the case of `CCn1c(SCC(=O)c2ccc(Br)cc2)nc2sc3c(c2c1=O)CCCC3` [BPOET, 2-{[2-(4-bromophenyl)-2-oxoethyl]thio}-3-ethyl-5,6,7,8-tetrahydro[1]benzothieno[2,3-d]pyrimidin-4(3H)-one], the “% waking” value [2] is reported as 20 ± 13%, the “Fold-change in resuscitation relative to BW25113 with DMSO” value [2] is reported as 4 fold and 4 ± 3 fold and the Waking cells [2] is reported as 38 ± 18. The “increase in persister cell waking based on turbidity” value (E. coli persister cells [3]) was 44 fold.
With `Cc1[nH]c2ccc([N+](=O)[O-])cc2c1-c1ccccc1` [2-methyl-5-nitro-3-phenyl-1H-indole] the “killing of exponential E. coli cells” value [4] was “unable to kill E. coli”.
With `Fc1cccc(NC(=S)Nc2ccc(Cl)c(Cl)c2)c1` [compound 1, N-(3,4-dichlorophenyl)-N′-(3-fluorophenyl) thiourea] the “persister killing” value (E. coli persister cells [1]) was “Most effective”.
In the case of `Ic1ccc2[nH]ccc2c1` [5-iodoindole, reference compound], the “killing of E. coli persister cells” value [5] is reported as “much less effective”, the MIC (E. coli K-12 BW25113) is reported as 2000 µM (≈ 486 µg/mL) and the MIC (S. aureus ATCC29213) is reported as 2000 µM (≈ 486 µg/mL). The MIC (P. aeruginosa PA14) was 2000 µM (≈ 486 µg/mL), the persisters killed (E. coli persister cells [6]) was 99.993% and the “killing of exponential E. coli cells” value [4] was “much less effective”. For the same compound, the “killing of P. aeruginosa” value [7] was “ineffective” and the “killing of S. aureus” value (S. aureus cells) was “ineffective”.
For `Cc1nccn1CC(O)Cn1c2ccc(Cl)cc2c2cc(Cl)ccc21` (centres unmarked) [compound 4, 1-(3,6-dichloro-9H-carbazol-9-yl)-3-(2-methyl-1H-imidazol-1-yl)-2-propanol], the “persister killing” value (E. coli persister cells [1]) was “Most effective”.
For `NCc1cc2ccccc2[nH]1` [2-(aminomethyl)-indole], the “killing of exponential E. coli cells” value [4] was “unable to kill E. coli”.
